Measured values as given in patent US4954504A, “N9 -cyclopentyl-substituted adenine derivatives having adenosine-2 receptor stimulating activity” (Ciba-Geigy Corporation, priority 1988, dated 1990).
Where a name gives a salt, the structure may show the parent alone.

Tested on: collagen-induced platelet aggregation
Test: Inhibition of collagen-induced platelet aggregation in human plasma
Type: cell-based

IC50: ~1.5 µM
SMILES: CCNC(=O)[C@H]1C[C@@H](n2cnc3c(N)nc(NCCc4ccc(CCC(=O)O)cc4)nc32)[C@H](O)[C@@H]1O (relative stereo) [Example 7a, 2-alpha,3-alphadihydroxy-4β-[2-(p-carboxyethyl-phenethylamino)-9-adenyl]-cyclopentane-1β-N-ethylcarboxamide hydrochloride]
